These results are taken from paper PMC12037410, “Pharmacological targeting of BMAL1 modulates circadian and immune pathways” (Nature Chemical Biology, 2025).

Molecules are shown by their SMILES.

The target in one assay is T1, BMAL1 (Homo sapiens, UniProt O00327).
T1 sequence (O00327 338-449): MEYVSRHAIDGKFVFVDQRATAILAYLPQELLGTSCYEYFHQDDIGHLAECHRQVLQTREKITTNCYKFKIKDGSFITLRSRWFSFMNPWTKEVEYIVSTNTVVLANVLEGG
Experiment: not given
Particulars: dTmB; binder. Also on record: PASB domain (residues 338–449); Protein thermal shift (PTS) fragment screen on recombinant human BMAL1(PASB), shift of melting temperature.
For the compound `CN1CCN(CCCC(=O)c2ccc(F)cc2)CC1` [Prestw-Frag-3692, Compound 279], the “Bmal1(PASB) dTmB” value is -0.28 °C.
Regarding `CCc1cccc2c(CCO)c[nH]c12` [Prestw-Frag-1299, Compound 129], the “Bmal1(PASB) dTmB” value is -0.11 °C.
Same read-out and setting: next, `O=C1c2ccccc2CN1c1ccccc1` [Prestw-Frag-2360, Compound 56]: -0.56 °C; `c1ncc(C2CCNCC2)[nH]1` [Prestw-Frag-3753, Compound 303]: -0.23 °C; `O=C(O)c1ccccc1NCc1ccco1` [Prestw-Frag-2052, Compound 70]: -0.26 °C.
The same measure, in the same setting: next, `COc1ccc(S(=O)(=O)N2CCNCC2)cc1` [Prestw-Frag-3313, Compound 215]: -0.02 °C; `CN(C)CCNCc1ccccc1` [Prestw-Frag-1476, Compound 397]: -0.27 °C; `NC(=O)c1ccccc1O` [Prestw-Frag-1439, Compound 86]: 0.06 °C.
Same read-out and setting: the same measure for `COc1cc2c(cc1OC)C(C)NCC2` (centres unmarked) [Prestw-Frag-2193, Compound 348]: -0.74 °C; for `c1ccc(CC2NCCc3ccccc32)cc1` (centres unmarked) [Prestw-Frag-1444, Compound 267]: -1.30 °C; for `NCC(CC(=O)O)c1ccccc1` (centres unmarked) [Prestw-Frag-1125, Compound 234]: -0.06 °C.
As for `CCC1=C(C)CN(C(=O)NCCc2ccccc2)C1=O` [Prestw-Frag-1075, Compound 420], the “Bmal1(PASB) dTmB” value is -0.68 °C.
The same measure, in the same setting: the same measure for `O=C(O)C1(c2ccccc2)CCCC1` [Prestw-Frag-2049, Compound 104]: -0.56 °C; for `COc1cc(NS(=O)(=O)c2ccc(N)cc2)ncn1` [Prestw-Frag-2337, Compound 376]: 0.09 °C; for `NC(=O)c1[nH]cnc1N` [Prestw-Frag-2268, Compound 14]: -0.68 °C.
Still for that read-out and setting: the same measure for `C[C@@H](O)c1cc(C(F)(F)F)cc(C(F)(F)F)c1` [Prestw-Frag-2849, Compound 236]: -0.34 °C; for `OCCn1cncn1` [Prestw-Frag-3101, Compound 350]: 0.19 °C; for `Clc1cccc(CN2CCNCC2)c1` [Prestw-Frag-1700, Compound 62]: -0.92 °C.
The same measure, in the same setting: the same measure for `O=C(O)c1cccc(-c2ccc(F)cc2F)c1` [Prestw-Frag-1238, Compound 368]: -0.92 °C; for `CC(N)C(=O)c1ccccc1` (centres unmarked) [Prestw-Frag-1941, Compound 223]: -0.18 °C; for `c1ccc(C2COCCN2)cc1` (centres unmarked) [Prestw-Frag-3705, Compound 182]: -0.30 °C.
In the case of `CC(C(=O)O)c1cccc(F)c1` (centres unmarked) [Prestw-Frag-3706, Compound 79], the “Bmal1(PASB) dTmB” value is 0.26 °C.

The target in a further assay is T1, BMAL1. The experiment in a line: ITC; also crystal structure ([…] Å), SPR (Kd […]), PTS (ΔTm […] °C), CETSA (EC50 […]). Format: binding. Also on record: PASB domain (338–449 amino acids).
Conditions: not given
As usually defined, the Kd is the constant that tells how readily two partners part at equilibrium. High values mean lower affinity, low ones higher affinity. In turn, `CCc1ccc(OCC(F)CO)c2occc12` (racemic) [compound 4, CCM] displayed an equilibrium dissociation constant (Kd) of 1990 ± 380 nM.
